According to patent US6852707B1, “Remedies for hyperammonemia” (Suntory Limited, priority 1998, dated 2005):

Columns and labels:
[1] = use against hyperammonemia; cited from earlier work
[2] = gastric acid, digestive enzymes (Okazaki et al. 1991, 1992); cited from earlier work
[3] = system: rats feeding on high-protein diet; assay: Effects of xylobiose on rats feeding on high-protein diet (Example 2); type: in vivo, rat
Protocol: SD Male rats in a growth stage (15 heads) were fed on a high-protein feed (containing 50% casein) and divided in three groups; the first group consisting of 5 rats were administered 0.5% xylobiose; the second group also consisting of 5 rats were administered 1.0% xylobiose; the third was a control group consisting of 5 rats which were administered distilled water; the animals were let to drink these liquids ad libitum for 3 weeks. Throughout the test period, there were no effects on the amounts of feed and water taken by the rats and the increase in their body weight. The cumulative uptake was 4.7±0.2 g for 0.5% xylobiose and 7.5±0.6 g for 1.0% xylobiose; the daily uptake by the two groups was 0.24 g and 0.37 g, respectively.
At the end of the test, blood was sampled from the rats and the blood ammonia level was measured.

SMILES	documented side effects [1]	stability in the digestive tract [2]	effects on amounts of feed and water taken and increase in body weight ([3]; 0.5% and 1.0% xylobiose, throughout the 3-week test period)	blood ammonia level versus control group ([3]; 0.5% xylobiose in drinking water ad libitum for 3 weeks)	blood ammonia level versus control group ([3]; 1.0% xylobiose in drinking water ad libitum for 3 weeks, p<0.05)
NC[C@@H]1O[C@H](O[C@H]2[C@@H](O)[C@H](O[C@@H]3[C@@H](O)[C@H](N)C[C@H](N)[C@H]3O[C@H]3O[C@H](CN)[C@@H](O)[C@H](O)[C@H]3N)O[C@@H]2CO)[C@H](N)[C@@H](O)[C@@H]1O [neomycin]	renal disorder and deafness				
OC1OC[C@@H](O[C@@H]2OC[C@@H](O)[C@H](O)[C@H]2O)[C@H](O)[C@H]1O (some centres unmarked) [xylobiose]		can reach the large intestine without being decomposed with gastric acid or digestive enzymes	no effects	lower than the value for the control group	significantly low
